Assay results as given in PubChem BioAssay AID504539 (Broad Institute, 2011).
“And” between values parts separate entries of the source, which are not always exact repeats. Identical values can stand only once.

System: Cell-based prion protein 5' UTR reporter, plate reader
Assay: prion protein 5' UTR mRNA inhibitors – cell-based, plate reader, cherry-picked samples, dose response (AID 504539)

Structure (SMILES)	AC50
CCOc1ccccc1C1CC(=O)Nc2cc3c(cc21)OCCO3 (centres undefined)	3820 nM
COCCCN=C1NN=C(c2cc(C)n(Cc3ccco3)c2C)CS1	1130 nM
COc1ccccc1NC(=O)c1oc2ccccc2c1NC(=O)c1cc(OC)c(OC)c(OC)c1	537 nM
CCN(CC)c1ccc(-c2nn3c(-c4n[nH]c5c4CCC5)nnc3s2)cc1	986 nM
COc1ccccc1N1CCN(C(=O)c2cc(=O)c3cc(C)cc(C)c3o2)CC1	248 nM
COc1cc(C(=O)N2CCN(c3ccccc3)CC2)c2ccccc2n1	574 nM
Cc1nn(-c2ccccc2)c(C)c1/C=N/NC(=O)c1cc(-c2cccs2)[nH]n1	1070 nM
O=C(c1ccc(Br)cc1)c1cc([N+](=O)[O-])ccc1N1CCCCC1	628 nM
Cc1nc2ncccn2c1-c1csc(Nc2ccc(N(C)C)cc2)n1	168 nM
CCN1/C(=C\C=C\C2=[N+](CC)c3ccccc3C2(C)C)C(C)(C)c2ccccc21	924 nM
COc1ccc(N/C=C/C(=O)c2cc(OC)c(OC)c(OC)c2)cc1	2440 nM
O=C(NNC(=O)c1ccccc1O)c1ccccc1O	234 nM
COC1C=CC=C(C)C(=O)NC2=CC(=O)C(N)=C(CC(C)CC(OC)C(O)C(C)C=C(C)C1OC(N)=O)C2=O (centres undefined)	< 38 nM
COc1cccc2c1C(=O)c1c(O)c3c(c(O)c1C2=O)CC(O)(C(C)=NNC(=O)c1ccc(Cl)c(Cl)c1)CC3OC1CC(N)C(O)C(C)O1 (centres undefined)	1270 nM
Nc1ncnc2c(C3OC(CO)C(O)C3O)c[nH]c12 (centres undefined)	76 nM
Cc1nn(-c2ccccc2)c(C)c1/C=N/NC(=O)c1cc(-c2ccccc2)n[nH]1	783 nM
Cn1cc(/C=N/n2cnc3scc(-c4ccc(Cl)cc4)c3c2=O)c2ccccc21	499 nM
COc1cc(SC)ccc1C(=O)Nc1nc2ccccc2[nH]1	< 38 nM
COc1ccc(-c2cc(-c3cccs3)c(C#N)c(SCC(=O)NCc3ccco3)n2)cc1	1530 nM
COc1ccc(S(=O)(=O)N2c3cc(Cl)ccc3Oc3nc4ccccc4nc32)cc1	1350 nM
CC(C)(C)C(=O)Nc1ccc(NC(=O)c2ccco2)nc1	244 nM
COc1cc(/C=N/O)ccc1OCc1ccc(C(=O)O)cc1	226 nM

Structure (SMILES)	AC50
CCC(C)Cn1c(O)cc2nn(-c3nc4ccccc4s3)c(=O)c-2c1C (centres undefined)	62 nM
Cc1cc(C(=O)CN2C(=O)c3ccccc3S2(=O)=O)c(C)n1C(C)C	2160 nM
O=C(O)c1ccc(N/N=C/c2ccc3nccnc3c2)cc1	560 nM
COc1cc2c(c(OC)c1O)-c1ccc(OC)c(=O)cc1C(NC(=O)C(F)(F)F)CC2 (centres undefined)	140 nM
O=C(O)c1cccc(N/N=C/c2cccs2)c1	349 nM
COC(=O)c1c(N)sc(C(=O)NCCc2ccccc2)c1C	413 nM
COC(=O)C12OCC34C(CC5C(C)=C(O)C(=O)CC5(C)C3C(O)C1O)OC(=O)C(OC(=O)/C=C(\C)C(C)C)C24 (centres undefined)	< 38 nM
c1ccc(-c2ccc(-c3nc(-c4ccccn4)no3)cc2)cc1	224 nM
COc1ccc(/C=C2\SC(=O)N(CCCC(=O)Nc3cc(Cl)ccc3C(=O)O)C2=O)cc1	242 nM
C[C@]12CC[C@H](O)C[C@H]1CC[C@@H]1[C@@H]2CC[C@]2(C)[C@@H](C3=CC(=O)OC3)CC[C@]12O	235 nM
CCOc1ccccc1C1C2=C(COC2=O)Nc2cc3c(cc21)OCO3 (centres undefined)	1050 nM
NC(=O)c1cc([N+](=O)[O-])ccc1NCc1ccc(N)cc1	490 nM
CCCS(=O)(=O)c1cnc(C2COc3ccccc3O2)nc1N (centres undefined)	487 nM
COC(=O)CCC(=O)NC(=S)Nc1sc(C)c(C)c1C(N)=O	636 nM
CCOC(=O)c1[nH]c2c(c1C)C(=O)CC(c1ccco1)C2 (centres undefined)	360 nM
CCCCCN1C=CC(=C2C(=O)c3ccccc3C2=O)C=C1	248 nM
CC(C)(O)/C=C/C(=O)[C@](C)(O)C1[C@H](O)C[C@@]2(C)C3CC=C4C(C[C@H](O)[C@@H](O)C4(C)C)[C@]3(C)C(=O)C[C@]12C (some centres undefined)	900 nM
Cc1ccc(-c2nc(-c3ccccn3)no2)cc1Cl	351 nM
N/C(=N\OC(=O)c1ccccc1Cl)c1ccccn1	558 nM
Cc1cc(C(=O)CSc2nnc3ccccn23)c(C)n1-c1ccccc1	480 nM
Cc1ccc2nc(NC(=O)c3ccccn3)sc2c1	220 nM
COc1ccc(-n2ncc3c(N(C)C4CCCCC4)ncnc32)cc1	1520 nM

Structure (SMILES)	AC50
CC(C)(C)c1ccc(/C=N/Nc2cccc(C(=O)O)c2)cc1	2110 nM
C[C@H]1CCC/C=C/[C@@H]2C[C@H](O)C[C@H]2[C@H](O)/C=C/C(=O)O1	72 nM and 51 nM
Cc1nc2cc(-c3ccccc3)sc2c(=O)n1N	284 nM
CC1CCCC=CC2CC(OC(=O)CN(C)C)CC2C(O)C=CC(=O)O1 (centres undefined)	126 nM
CN(CCO)c1ccc(/C=N/Nc2nncc3ccccc23)cc1	412 nM
O=C(Nc1ccc(N2CCOCC2)cc1)c1cnsn1	486 nM
CCc1ccc(-c2cc(C(=O)Nn3cnnc3)c3ccccc3n2)cc1	510 nM
C[C@@H]1O[C@@H](O[C@H]2C[C@@H](O)[C@]3(CO)[C@H]4[C@H](O)C[C@]5(C)[C@@H](C6COC(=O)C6)CC[C@]5(O)[C@@H]4CC[C@]3(O)C2)[C@H](O)[C@H](O)[C@H]1O (some centres undefined)	915 nM
Cc1nn(C(C)(C)C)c(C)c1/C=N/OC(=O)Nc1ccc(Cl)cc1	< 38 nM
C=CCOc1ccc(/C=C2\SC(=S)N(CCC(=O)O)C2=O)cc1	963 nM
O=C1NC2C(=CC(O)C(O)C2O)c2cc3c(c(O)c21)OCO3 (centres undefined)	205 nM
Cc1cc(C(=O)COC(=O)C2=COCCO2)c(C)n1-c1ccccc1	1170 nM
CC(C)(O)/C=C/C(=O)C(C)(O)C1C(O)CC2(C)C3CC=C4C(C=C(O)C(=O)C4(C)C)C3(C)C(=O)CC12C (centres undefined)	104 nM
Cc1ccc(-c2nc(-c3ccccn3)no2)cc1	140 nM
C=Cc1cc(OC)c2c(c1)c(=O)oc1c2cc(OC)c2c(O)ccc(C3OC(C)C(O)C(C)(O)C3O)c21 (centres undefined)	211 nM
CC12CCC3C(CCC4(O)CC(O)CCC34C=NO)C1(O)CCC2C1=COC(=O)C1 (centres undefined)	160 nM
CN(c1ccc2nc3ccccc3c(=O)n2n1)C1CCCCC1	574 nM
O=c1c2ccccc2sc2ccc(C#CC3(O)CCCCC3)cc12	< 38 nM
O=c1c(Cl)c(N2CCCCC2)cnn1-c1nc2ccccc2[nH]1	501 nM
CCn1c(C)cc(C(=O)CN2C(=O)c3ccccc3S2(=O)=O)c1C	1260 nM
Cc1cc(/C=C2\SC(=S)N(C)C2=O)c(C)n1-c1ccc(O)cc1	130 nM
Cc1cc(C2=NNC(=NC3CC3)SC2)c(C)n1-c1ccccc1F	< 38 nM

Structure (SMILES)	AC50
Cc1cc(C)c2c(N)c(C(=O)Nc3ncc(C)s3)sc2n1	388 nM
COC(=O)Cc1ccc(NC(=O)c2ccc(C(C)(C)C)cc2)cc1	414 nM
CN(C(=O)OC(C)(C)C)c1ccc(-c2nc3ccccc3s2)cc1	< 38 nM
COc1ccc(N=CC2=C(O)c3ccccc3C2=O)c(OC)c1	1170 nM
CN(C)c1ccc(NC(=S)c2ccccn2)cc1	222 nM
Cc1cc(C=C2C(=O)c3ccccc3C2=O)c(C)n1-c1ccccc1	809 nM
Cc1ccc(C(=O)Nc2cnc3ccccc3c2)cc1	94 nM
O=C(CN1C(=O)c2ccccc2S1(=O)=O)N1CCc2ccccc21	582 nM
COc1ccc(C(=O)O/N=C(\N)c2ccccn2)cc1	99 nM
O=C(Nc1nc2cc3c(cc2s1)OCCO3)c1ccco1	234 nM
COC(=O)c1nn(-c2ccc3c(c2)CCN3C(C)=O)cc1O	300 nM
Cc1cc(C(=O)COC(=O)c2ccccc2O)c(C)n1CC1CCCO1 (centres undefined)	< 38 nM
CC[C@@]1(O)C(=O)OCc2c1cc1n(c2=O)Cc2cc3c(NC(=O)CN)cccc3nc2-1	232 nM
CCN(CC)c1ccc(/C=N/N=C(N)N)c(O)c1	1410 nM
CCOc1ccc(OCc2cccc(C(=O)N3CCOCC3)c2)cc1	573 nM
Cc1ccoc1C(=O)Nc1ccc(CC(=O)O)cc1	374 nM
c1cc2c(cc1C1=NNC(=NC3CC3)SC1)OCCO2	189 nM
Cc1cc2sc3ccc(C#CC4(O)CCCCC4)cc3c(=O)c2cc1C	< 38 nM
Cc1ccsc1/C=N/Nc1cccc(C(=O)O)c1	355 nM
CCCC1=Nc2cc(C(=O)NCCCOCC)ccc2Sc2ccccc21	434 nM
Cc1cc(C(=O)CN2C(=O)c3ccccc3S2(=O)=O)c(C)n1CC1CCCO1 (centres undefined)	271 nM
NC(=S)c1cn(C2OC(CO)C(O)C2O)c2ncnc(N)c12 (centres undefined)	1810 nM

Structure (SMILES)	AC50
O=C(Nc1ccc(N2CCCCC2)cc1)c1ccccn1	273 nM
CC(=O)c1sc2c(c1OC(=O)c1ccc(Cl)cc1Cl)c(=O)n(-c1ccccc1)c(=S)n2-c1ccccc1	452 nM
Cc1nn(-c2ccccc2Cl)c(Cl)c1/C=N/Nc1nc2ccccc2s1	< 38 nM
O=C(NC1CCCCC1)c1n[nH]c2c1CCCCC2	759 nM
O=C(NCCc1ccccc1)c1ccc2c(c1)OCCCO2	187 nM
CC1=CC2OC3CC4OC(=O)C=CC=CC(C(C)O)OCC(O)C5(C)OC5C(=O)OCC2(CC1O)C4(C)C31CO1 (centres undefined)	95 nM
COc1ccc2c(c1)sc1nc(-c3ccccc3)cn12	556 nM
NC1=C(Cl)C(=O)c2ccc(S(N)(=O)=O)cc2C1=O	226 nM
CC/C=C/CC(=O)N[C@@H](c1ccccc1)[C@@H](O)C(=O)O[C@H]1C[C@@]2(O)[C@@H](OC(=O)c3ccccc3)C3[C@](C)(C(=O)[C@H](OC(C)=O)C(=C1C)C2(C)C)[C@@H](O)C[C@H]1OC[C@@]31OC(C)=O (some centres undefined)	368 nM
Brc1ccc(N=Nc2ccc3ccccc3n2)cc1	543 nM
COc1ccccc1-c1nnc2sc(-c3cc4ccccc4o3)nn12	4300 nM
CC1CCC/C=C/C2CC(O)CC2C(O)/C=C/C(=O)O1 (centres undefined)	51 nM
CC(=O)OC(C)(C)/C=C/C(=O)[C@](C)(O)C1[C@H](O)C[C@@]2(C)C3CC=C4C(C[C@H](O)C(=O)C4(C)C)[C@]3(C)C(=O)C[C@]12C (some centres undefined)	< 38 nM
COC(=O)C12OCC34C(CC5C(C)=C(O)C(=O)CC5(C)C3C(O)C1O)OC(=O)C(OC(=O)C=C(C)C)C24 (centres undefined)	< 38 nM
CCOc1ccc(S(=O)(=O)Nc2cc(OC)ccc2OC)cc1	873 nM
CSc1nc(-c2ccccc2)nc(C(Cl)Cl)n1	1270 nM
Cc1csc(NC(=O)CCc2c(C)nc3cc(-c4ccc(Cl)cc4)nn3c2C)n1	1160 nM
C=CCn1c(C)cc(C2=NNC(=NC(C)(C)C)SC2)c1C	714 nM
COc1ccc(C2=Nn3c(nnc3-c3ccccc3OC)SC2)cc1OC1CCOC1 (centres undefined)	3560 nM
CCCOc1ccc2cc(-c3ccccn3)c(=O)oc2c1	399 nM
Nc1ccc2oc(-c3cccc4ccccc34)nc2c1	826 nM
